Biological target: T1, DGKK (Diacylglycerol kinase kappa) (Homo sapiens, UniProt Q5KSL6)
T1 construct: host or cells: SILAC HEK293T
T1 sequence (Q5KSL6 1-1271): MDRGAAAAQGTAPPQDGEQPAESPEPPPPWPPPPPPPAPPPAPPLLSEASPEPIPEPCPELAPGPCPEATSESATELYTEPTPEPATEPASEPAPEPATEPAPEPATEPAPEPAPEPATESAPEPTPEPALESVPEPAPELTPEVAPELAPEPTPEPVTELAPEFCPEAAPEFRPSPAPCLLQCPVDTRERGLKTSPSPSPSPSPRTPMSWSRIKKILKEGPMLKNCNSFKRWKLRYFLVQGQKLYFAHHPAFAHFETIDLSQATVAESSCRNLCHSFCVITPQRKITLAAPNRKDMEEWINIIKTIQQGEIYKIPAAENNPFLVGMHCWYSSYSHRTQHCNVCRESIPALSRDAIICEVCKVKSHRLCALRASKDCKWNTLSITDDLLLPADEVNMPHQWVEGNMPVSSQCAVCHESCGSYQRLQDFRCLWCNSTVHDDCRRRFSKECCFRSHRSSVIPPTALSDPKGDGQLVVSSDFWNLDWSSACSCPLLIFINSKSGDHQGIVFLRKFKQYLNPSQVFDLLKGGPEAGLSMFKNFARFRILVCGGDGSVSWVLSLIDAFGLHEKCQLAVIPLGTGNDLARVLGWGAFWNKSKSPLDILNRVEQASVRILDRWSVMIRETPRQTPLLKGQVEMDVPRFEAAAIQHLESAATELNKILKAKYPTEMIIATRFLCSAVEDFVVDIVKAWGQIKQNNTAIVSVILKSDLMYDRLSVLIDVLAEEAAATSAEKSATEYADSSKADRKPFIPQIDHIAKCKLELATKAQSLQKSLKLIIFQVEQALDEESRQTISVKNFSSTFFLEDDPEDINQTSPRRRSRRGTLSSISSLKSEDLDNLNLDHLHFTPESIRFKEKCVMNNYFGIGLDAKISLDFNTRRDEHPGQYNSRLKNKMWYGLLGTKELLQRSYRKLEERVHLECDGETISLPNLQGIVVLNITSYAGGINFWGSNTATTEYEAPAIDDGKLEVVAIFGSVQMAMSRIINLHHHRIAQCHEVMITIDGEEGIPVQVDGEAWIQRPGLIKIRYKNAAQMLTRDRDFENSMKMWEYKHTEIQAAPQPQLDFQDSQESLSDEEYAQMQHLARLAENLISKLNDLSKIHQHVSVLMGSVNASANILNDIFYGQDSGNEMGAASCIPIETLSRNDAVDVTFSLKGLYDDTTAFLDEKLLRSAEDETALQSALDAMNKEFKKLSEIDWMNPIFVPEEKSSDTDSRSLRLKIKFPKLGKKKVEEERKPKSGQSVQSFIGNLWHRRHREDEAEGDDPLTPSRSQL
Experiment: SILAC LC-MS ATP acyl phosphate probe competition, recombinant DGK-HEK293T lysates
Type: binding
Conditions: site DAGKa (K892); ATP 1 mM; Ketanserin, Ritanserin 100 μM; RF001 1 mM
Description: Recombinant DGK proteins were produced by transient transfection of HEK293T cells with recombinant DNA. pDONR223-DGKK was a gift from William Hahn & David Root (Addgene plasmid #23487). pCSF107mT-GATEWAY-3′-FLAG was a gift from Todd Stukenberg (Addgene plasmid #67619). pCSF107mT-DGKK-FLAG construct was generated by recombination of the Addgene plasmids using the Gateway cloning system (Invitrogen). All other vectors were gifted to Dr. Kevin Lynch (University of Virginia, School of Medicine) by Dr. Kaoru Goto (Yamagata University, School of Medicine) and Dr. Fumio Sakane (Chiba University) and were kindly shared with us: pcDNA3-FLAG-DGKA (rat), pCMV-Tag2B-FLAG-DGKQ (human), pcDNA3-DGKE-3×Flag (human), and pCMV-SPORT6-HA-DGKZ (human). HEK293T cells were plated at a concentration of 400,000 cells in complete DMEM and grown to 50-60% confluency. A polyethyleneimine (PEI) stock solution was prepared (1 mg/mL, pH 7.4) and filter sterilized. Serum-free DMEM (600 μL) was mixed gently with 2.6 μg DNA and 20 μL of sterile PEI (1 mg/mL, pH 7.4) in a sterile microfuge tube. Mixtures were incubated for 30 min at 25° C. The mixture was then added drop-wise to each 10 cm^2 plate, rocked back and forth to mix, and placed back in the incubator. Cell pellets were harvested after two full days of growth, snap-frozen in liquid N2, and stored at −80° C. until use. Recombinant proteins were produced by transient transfection in SILAC HEK293T cells using the procedure described above, except that cells were plated at a concentration of 1×10^6 cells per 10 cm^2 plate and grown to ˜70% confluency prior to introducing transfection mixture.
Proteomes were diluted to 2 mg/ml in kinase buffer. The light and heavy proteomes (0.5 mg, 250 μL total reaction volume) were pre-treated with vehicle or compound, respectively (5 μL, DMSO (light) or 50× stock in DMSO (heavy)), mixed gently, and incubated at 25° C. for 30 min. […] After incubation, matched light and heavy proteomes were transferred and mixed in a 1:1 ratio in a two-dram vial containing 4:1:3 MeOH/CHCl3/H2O (2 mL MeOH, 500 AL CHCl3, 1.5 mL H2O) for extraction of proteins to remove excess probe, quickly vortexed, and centrifuged at 1,400×g for 3 min to pellet protein. Organic and aqueous layers were removed using a Pasteur pipette, and the protein pellet was transferred to a screw-top tube in 600 μL MeOH. A second extraction was performed by adding CHCl3 (150 μL) and H2O (600 μL) to each sample, vortexed, and centrifuged at 1,400×g for 3 min to pellet protein. Organic and aqueous layers were removed by pipetting. MeOH added to pellet (600 μL) and pellets were re-suspended by sonication (3×1 sec pulse, 20% amplitude) for a final extraction. Samples were then centrifuged at 17,000×g for 5 min to pellet protein and MeOH was removed by pipetting. The pellets were re-suspended in 10 M urea/25 mM ammonium bicarbonate ([…]), brought to a final volume of 1 mL with 25 mM ammonium bicarbonate, reduced with 10 mM DTT for 15 min at 65° C. allowed to cool, and then alkylated with 40 mM iodoacetamide for 30 min at 25° C. in the dark. To desalt the samples, each was transferred to a two-dram glass vial, and to the vial 4:1:2 MeOH/CHCl3/H2O (2 mL MeOH, 500 AL CHCl3, 1 mL H2O) was added. The vials were vortexed quickly, spun at 1.400×g for 3 min to pellet protein, and aqueous and organic layers were removed using a Pasteur pipette. The resulting protein pellet was transferred to a screw-top tube in 600 μL MeOH, and then CHCl3 (150 μL) and HO (600 μL) were added to extract protein a second time. The samples were vortexed quickly, centrifuged at 1,400×g to pellet protein, and the aqueous and organic layers were removed by pipetting. Resulting protein pellet was suspended in MeOH (600 μL) via sonication (3×1 sec pulse, 20% amplitude), centrifuged at 17,000×g for 5 min to pellet protein, and MeOH removed by pipetting. […]

SILAC ratio, DGKK DAGKa probe-modified peptide | Structure (SMILES)
1.6 | Fc1ccc(C(=C2CCNCC2)c2ccc(F)cc2)cc1 [RF001, 4-(Bis(4-fluorophenyl)methylene) piperidine]
0.2 | O=C(c1ccc(F)cc1)C1CCN(CCn2c(=O)[nH]c3ccccc3c2=O)CC1 [Ketanserin]

Structure (SMILES) | SILAC ratio, DGKK DAGKa probe-modified peptide
Cc1nc2sccn2c(=O)c1CCN1CCC(=C(c2ccc(F)cc2)c2ccc(F)cc2)CC1 [Ritanserin] | 0.7

Source: patent US12643867B2, “Compositions and uses thereof” (University of Virginia Patent Foundation, priority 2017, dated 2026)
